Results as given in patent US9474790B2, “Stable, protracted GLP-1/glucagon receptor co-agonists for medical use” (Novo Nordisk A/S, priority 2013, dated 2016).
Numbered stars: 1 amine (or outer) side, 2 acyl side, 3 side chain; on linkers, the order of the positions; unused ones are H or OH. Square brackets hold non-standard residues; d marks the D form. Side chains are listed from the residue outwards. Peptide text beside a SMILES is read from it. * marks the point of attachment. C18 diacid = O=C(O)CCCCCCCCCCCCCCCCC(=O)*; γGlu = O=C(O)[C@H](CCC(=O)[*:2])N[*:1]; AEEA = NCCOCCOCC(=O)O; Aib = CC(C)(N)C(=O)O

Test system: DIO mice
Assay: In vivo test in diet-induced obese (DIO) mice: body weight and blood glucose
Design: species or system c57bl/6J mice
Conditions: s.c. once daily 5 weeks, co-agonists 5 then 10 nmol/kg, liraglutide 100 nmol/kg
Description: The purpose of this experiment was to investigate effect of the glucagon-GLP-1R co-agonists from Example 8 and Example 12 on body weight and blood glucose in vivo in DIO mice. Liraglutide (a human GLP-1 analogue marketed by Novo Nordisk NS under the brand name VictozaTM) was included for comparison. Male […]/6J mice obtained from Jackson Lab (USA) were fed a high fat diet (Research Diets D12451, 45% kcal fat) to obtain approximately 50% overweight compared to age-matched lean control mice. The DIO mice are characterized by normoglycemia, insulin resistance and obesity. […] The co-agonists, i.e. the glucagon derivatives, were dissolved in 50 mM Na2HPO4, 145 mM NaCl og 0.05% Tween 80, pH 7.4, while liraglutide was diluted from 6 mg/ml VictozaTM pens in DPBS buffer (Invitrogen) containing 0.5% rat serum albumin. Vehicle treated animals received 50 mM Na2HPO4, 145 mM NaCl og 0.05% Tween 80, pH 7.4. Compounds and vehicle were dosed (1 ml/kg) for 5 weeks s.c. once daily just prior to lights out. For the first half of the study co-agonists were administered at a dose of 5 nmol/kg and for the second half of the study co-agonists were administered at a dose of 10 nmol/kg. For comparison, liraglutide at a dose of 100 nmol/kg, likewise dosed s.c. once daily, was included. Body weight was monitored before dosing, daily during the dosing period. Non-fasted blood glucose was measured on the day of initiation of dosing and weekly during the dosing period, prior to dosing. Blood for measurement of blood glucose was taken from the tail tip capillary and blood glucose was measured using a glucose analyzer (Biosen 5040) based on the glucose oxidase method. The body weight reduction/body weight at the end of the 5 week treatment period and area under the blood glucose curve during the five week treatment period are given in the tables below.

## CC(C)C[C@H](NC(=O)[C@H](CC(C)C)NC(=O)[C@H](Cc1c[nH]c2ccccc12)NC(=O)[C@H](CCC(N)=O)NC(=O)[C@@H](NC(=O)[C@H](Cc1ccccc1)NC(=O)[C@H](CCC(=O)O)NC(=O)[C@H](CCC(N)=O)NC(=O)[C@H](C)NC(=O)[C@H](C)NC(=O)[C@H](CCCCN)NC(=O)[C@H](CO)NC(=O)[C@H](CC(=O)O)NC(=O)[C@H](CC(C)C)NC(=O)[C@H](Cc1ccc(O)cc1)NC(=O)[C@H](CCCCN)NC(=O)[C@H](CO)NC(=O)[C@H](CC(C)C)NC(=O)[C@H](CC(=O)O)NC(=O)[C@H](CO)NC(=O)[C@@H](NC(=O)[C@H](Cc1ccccc1)NC(=O)[C@@H](NC(=O)CNC(=O)[C@H](CCC(N)=O)NC(=O)C(C)(C)NC(=O)[C@@H](N)Cc1c[nH]cn1)[C@@H](C)O)[C@@H](C)O)C(C)C)C(=O)N[C@@H](CC(N)=O)C(=O)N[C@@H](CCCCNC(=O)CC[C@H](NC(=O)CC[C@H](NC(=O)COCCOCCNC(=O)COCCOCCNC(=O)CC[C@H](NC(=O)CCCCCCCCCCCCCCCCC(=O)O)C(=O)O)C(=O)O)C(=O)O)C(N)=O [Example 8, N^ε29-[(4S)-4-carboxy-4-[[(4S)-4-carboxy-4-[[2-[2-[2-[[2-[2-[2-[[(4S)-4-carboxy-4-(17-carboxyheptadecanoylamino)butanoyl]amino]ethoxy]ethoxy]acetyl]amino]ethoxy]ethoxy]acetyl]amino]butanoyl]amino]butanoyl]-[Aib2,Leu10,Lys17,Ala18,Glu21,Leu27,Lys29]-Glucagon amide] (H-H[Aib]QGTFTSDLSKYLDSKAAQEFVQWLLNK([γGlu-γGlu-AEEA-AEEA-γGlu-C18 diacid])-NH2; N-terminus assumed)
  Percent BW of baseline at week 5 (mean ± SD): 88% ± 8%
